In patent US11091501B2, “Heterocyclic compounds as RSV inhibitors” (Enanta Pharmaceuticals, Inc., priority 2017, dated 2021):

test system: Human RSV-A (“Long” strain); assay: RSV in vitro cytoprotection assay (CPE, ATPlite) in HEp-2 cells; format: cell-based; details: human respiratory syncytial virus, 96 h; HEp-2 cells, 4-day incubation, ATPlite readout; read-out: Human RSV-A (“Long” strain) EC50
From the text: RSV is a single stranded negative sense RNA virus that causes respiratory tract infections which can be dangerous to infants, the elderly, and immunosuppressed individuals. Currently there is no vaccine, and therapeutic options are both costly and of limited effectiveness. These approved treatments are Ribavirin, and Palivizumab/Synagis (a monoclonal antibody). RSV has two genotypes, A and B, which differ primarily in the structure of the virus' surface “G” attachment protein. Our current primary screen focuses on RSV-A and uses an in vitro cytoprotection assay where compounds are added in 2-fold dilutions to cells which are then subjected to fully replicative viral particles. Cell viability is measured several days later along with separate measurements of compound cytotoxicity. This report focuses on the results of our most recent screening of compounds.
HEp-2 cells, (originally derived from tumors grown in irradiated-cortisonised weanling rats that had been injected with epidermoid carcinoma tissue from a person's larynx, but later found to be indistinguishable from HeLa cells by PCR DNA analysis), were used for the culturing of genotype A, “Long” strain RSV. Flasks were inoculated with RSV and viral stocks were collected once cytopathic effect (CPE) was greater than 90%. Viral stocks in 25% sucrose media were snap frozen using liquid nitrogen to increase viral stability. Viral stock titers were quantified by tissue culture infectious dose 50% (TCID50) using 8,000 cells per well and 3-fold viral dilutions across a 96-well plate, cultured for 4 days.
Following extensive parameter testing, the final assay is run as follows: HEp-2 cells are seeded into the inner 60 wells of a 96-well plate at 8,000 cells per well in a volume of 50 μL using Growth Media (DMEM without phenol red, 1% L-Glut, 1% Penn/Strep, 1% nonessential amino acids, 10% FBS). 2-Fold serial dilutions of control and test compounds are added to the wells in duplicate in a total volume of 25 μL. Viral stock is then added to the wells in a volume of […] the total volume of each well to 100 μL. Each 96-well plate has a control column of 6 wells with cells and virus but no compound (negative control, max CPE), a column with cells but no compound or virus (positive control, minimum CPE), and a column with no cells or virus or compound (background plate/reagent control). The control wells with cells but no virus are given an additional 25 uL of growth media containing an equal quantity of sucrose as those wells receiving the viral stock in order to keep consistent in media and volume conditions. The outer wells of the plate are filled with 125 μL of growth media to act as a thermal and evaporative moat around the test wells. Following a 4-day incubation period, the plates are read using ATPlite (50 uL added per well), which quantifies the amount of ATP (a measure of cell health) present in each well. Assay plates are read using the Envision luminometer. In parallel, cytotoxicity is examined on an additional 96-well plate treated in an identical manner, but substituting the 25 μL of viral stock for 25 μL of growth media. […] EC50 ranges are as follows: A<0.01 μM; B 0.01-0.05 μM; C>0.05 μM.

Row | SMILES | EC50 [µM]
1 | O=C(Nc1ccc(C(=O)N2CCc3c(sc(C(=O)Nc4c(Cl)cccc4Cl)c3F)-c3ccccc32)cc1)c1cccnc1N1CC2(CCOCC2)C1 [Example 90] | 0.01 to 0.05
2 | Cc1cccc(F)c1NC(=O)c1sc2c(c1F)CCN(C(=O)c1ccc(NC(=O)c3cccnc3N3CC4(CCOCC4)C3)cc1)c1ccccc1-2 [Example 91] | < 0.01
3 | O=C(Nc1ccc(C(=O)N2CCc3c(sc(-c4nc5ccccc5[nH]4)c3F)-c3ccccc32)cc1)c1cccnc1N1CC2(CCOCC2)C1 [Example 92] | < 0.01
4 | Cc1cnc(N2CC3(CCOCC3)C2)c(C(=O)Nc2ccc(C(=O)N3CCc4c(sc(C(=O)Nc5c(C)cccc5F)c4F)-c4ccccc43)cc2)c1 [Example 95] | < 0.01
5 | O=C(Nc1c(F)cccc1F)c1cc2c(o1)-c1ccc(F)cc1N(C(=O)c1ccc(NC(=O)c3cccnc3N3CC4(CCOCC4)C3)cc1)CC2 [Example 99] | < 0.01
6 | O=C(Nc1c(F)cc(F)cc1Cl)c1nc2c(s1)-c1ccccc1N(C(=O)c1ccc(NC(=O)c3cccnc3N3CC4(CCOCC4)C3)cc1)CC2 [Example 106] | 0.01 to 0.05
7 | O=C(Nc1ccc(C(=O)N2CCc3nc(-c4nc5ccccc5[nH]4)sc3-c3ccccc32)cc1)c1cccnc1N1CC2(CCOCC2)C1 [Example 107] | 0.01 to 0.05
8 | O=C(Nc1c(F)cccc1F)c1nc2c(o1)-c1ccccc1N(C(=O)c1ccc(NC(=O)c3cccnc3N3CC4(CCOCC4)C3)cc1)CC2 [Example 108] | 0.01 to 0.05
9 | Cc1ccc(C(=O)Nc2ccc(C(=O)N3CCc4cc(C(=O)Nc5c(F)cc(F)cc5F)sc4-c4ccc(F)cc43)cc2)c(N2CC3(CCOCC3)C2)n1 [Example 111] | < 0.01
10 | Cc1ccc(C(=O)Nc2ccc(C(=O)N3CCc4cc(C(=O)Nc5c(C)cccc5F)sc4-c4ccc(F)cc43)cc2)c(N2CC3(CCOCC3)C2)n1 [Example 112] | < 0.01
11 | Cc1ccc(C(=O)Nc2ccc(C(=O)N3CCc4cc(C(=O)Nc5c(F)cccc5C(F)(F)F)sc4-c4ccc(F)cc43)cc2)c(N2CC3(CCOCC3)C2)n1 [Example 113] | < 0.01
12 | Cc1ccc(C(=O)Nc2ccc(C(=O)N3CCc4cc(C(=O)Nc5ccccc5F)sc4-c4ccc(F)cc43)cc2)c(N2CC3(CCOCC3)C2)n1 [Example 114] | < 0.01
13 | Cc1ccc(C(=O)Nc2ccc(C(=O)N3CCc4cc(C(=O)Nc5ncccc5F)sc4-c4ccc(F)cc43)cc2)c(N2CC3(CCOCC3)C2)n1 [Example 115] | < 0.01
14 | Cc1ccc(C(=O)Nc2ccc(C(=O)N3CCc4cc(C(=O)Nc5c(C)cccc5C)sc4-c4ccc(F)cc43)cc2)c(N2CC3(CCOCC3)C2)n1 [Example 116] | < 0.01
15 | Cc1cnc(N2CC3(CCOCC3)C2)c(C(=O)Nc2ccc(C(=O)N3CCc4cc(C(=O)Nc5ncccc5F)sc4-c4ccc(F)cc43)cc2)c1 [Example 118] | < 0.01
16 | Cc1cnc(N2CC3(CCOCC3)C2)c(C(=O)Nc2ccc(C(=O)N3CCc4cc(C(=O)Nc5ncccc5C(F)(F)F)sc4-c4ccc(F)cc43)cc2)c1 [Example 119] | < 0.01
17 | Cc1cnc(N2CC3(CCOCC3)C2)c(C(=O)Nc2ccc(C(=O)N3CCc4cc(C(=O)Nc5ncccc5Cl)sc4-c4ccc(F)cc43)cc2)c1 [Example 120] | < 0.01
18 | Cc1cnc(N2CC3(CCOCC3)C2)c(C(=O)Nc2ccc(C(=O)N3CCc4cc(C(=O)NC5CC(C)(C)OC(C)(C)C5)sc4-c4ccc(F)cc43)cc2)c1 [Example 121] | < 0.01
19 | Cc1cnc(N2CC3(CCOCC3)C2)c(C(=O)Nc2ccc(C(=O)N3CCc4cc(C(=O)NC5CCS(=O)(=O)CC5)sc4-c4ccc(F)cc43)cc2)c1 [Example 122] | > 0.05
20 | Cc1cnc(N2CC3(CCOCC3)C2)c(C(=O)Nc2ccc(C(=O)N3CCc4cc(C(=O)NC5CC6CCC5O6)sc4-c4ccc(F)cc43)cc2)c1 (stereo not drawn) [Example 123] | < 0.01
21 | Cc1cnc(N2CC3(CCOCC3)C2)c(C(=O)Nc2ccc(C(=O)N3CCc4cc(C(=O)N[C@H]5CCOC5)sc4-c4ccc(F)cc43)cc2)c1 [Example 124] | < 0.01
22 | Cc1cnc(N2CC3(CCOCC3)C2)c(C(=O)Nc2ccc(C(=O)N3CCc4cc(C(=O)Nc5ncco5)sc4-c4ccc(F)cc43)cc2)c1 [Example 125] | 0.01 to 0.05
23 | Cc1cnc(N2CC3(CCOCC3)C2)c(C(=O)Nc2ccc(C(=O)N3CCc4cc(C(=O)Nc5cccnn5)sc4-c4ccc(F)cc43)cc2)c1 [Example 126] | < 0.01
24 | Cc1cnc(N2CC3(CCOCC3)C2)c(C(=O)Nc2ccc(C(=O)N3CCc4cc(C(=O)Nc5nccs5)sc4-c4ccc(F)cc43)cc2)c1 [Example 132] | < 0.01
25 | Cc1cnc(N2CC3(CCOCC3)C2)c(C(=O)Nc2ccc(C(=O)N3CCc4cc(C(=O)Nc5nnc(C)s5)sc4-c4ccc(F)cc43)cc2)c1 [Example 133] | 0.01 to 0.05
26 | Cc1cnc(N2CC3(CCOCC3)C2)c(C(=O)Nc2ccc(C(=O)N3CCc4cc(C(=O)Nc5ncc(C)o5)sc4-c4ccc(F)cc43)cc2)c1 [Example 134] | < 0.01
27 | O=C(Nc1c(F)cccc1Cl)c1cc2c(s1)-c1ccc(F)cc1N(C(=O)c1ccc(NC(=O)c3cc4c(nc3N3CC5(CCOCC5)C3)CCOC4)cc1)CC2 [Example 137] | < 0.01
28 | O=C(Nc1ncccc1Cl)c1cc2c(s1)-c1ccc(F)cc1N(C(=O)c1ccc(NC(=O)c3cc4c(nc3N3CC5(CCOCC5)C3)CCC4)cc1)CC2 [Example 140] | < 0.01
29 | Cc1cnc(N2CC3(CCOCC3)C2)c(C(=O)Nc2ccc(C(=O)N3CCc4cc(-c5nnco5)sc4-c4ccc(F)cc43)cc2)c1 [Example 141] | < 0.01

More lines, now with the values ahead:

Row | EC50 [µM] | SMILES
30 | < 0.01 | Cc1cnc(N2CC3(CCOCC3)C2)c(C(=O)Nc2ccc(C(=O)N3CCc4c(sc(C(=O)Nc5c(F)cccc5F)c4F)-c4ccccc43)cc2)c1 [Example 93]
31 | < 0.01 | Cc1cnc(N2CC3(CCOCC3)C2)c(C(=O)Nc2ccc(C(=O)N3CCc4c(sc(C(=O)Nc5c(F)cc(F)cc5F)c4F)-c4ccccc43)cc2)c1 [Example 94]
32 | < 0.01 | O=C(Nc1c(F)cc(F)cc1F)c1cc2c(o1)-c1ccc(F)cc1N(C(=O)c1ccc(NC(=O)c3cccnc3N3CC4(CCOCC4)C3)cc1)CC2 [Example 100]
33 | < 0.01 | O=C(Nc1c(F)cccc1F)c1nc2c(s1)-c1ccccc1N(C(=O)c1ccc(NC(=O)c3cccnc3N3CC4(CCOCC4)C3)cc1)CC2 [Example 104]
34 | 0.01 to 0.05 | O=C(Nc1c(F)cc(F)cc1F)c1nc2c(s1)-c1ccccc1N(C(=O)c1ccc(NC(=O)c3cccnc3N3CC4(CCOCC4)C3)cc1)CC2 [Example 105]
35 | 0.01 to 0.05 | O=C(Nc1ccc(C(=O)N2CCc3nc(-c4nc5ccccc5[nH]4)oc3-c3ccccc32)cc1)c1cccnc1N1CC2(CCOCC2)C1 [Example 109]
36 | < 0.01 | Cc1ccc(C(=O)Nc2ccc(C(=O)N3CCc4cc(C(=O)Nc5c(F)cccc5F)sc4-c4ccc(F)cc43)cc2)c(N2CC3(CCOCC3)C2)n1 [Example 110]
37 | < 0.01 | Cc1cnc(N2CC3(CCOCC3)C2)c(C(=O)Nc2ccc(C(=O)N3CCc4cc(C(=O)Nc5c(F)cncc5F)sc4-c4ccc(F)cc43)cc2)c1 [Example 117]
38 | 0.01 to 0.05 | Cc1cnc(N2CC3(CCOCC3)C2)c(C(=O)Nc2ccc(C(=O)N3CCc4cc(C(=O)Nc5ccnnc5)sc4-c4ccc(F)cc43)cc2)c1 [Example 127]
39 | 0.01 to 0.05 | Cc1cnc(N2CC3(CCOCC3)C2)c(C(=O)Nc2ccc(C(=O)N3CCc4cc(C(=O)Nc5ncns5)sc4-c4ccc(F)cc43)cc2)c1 [Example 128]
40 | > 0.05 | Cc1cnc(N2CC3(CCOCC3)C2)c(C(=O)Nc2ccc(C(=O)N3CCc4cc(C(=O)NC5CCNC5)sc4-c4ccc(F)cc43)cc2)c1 (stereo not drawn) [Example 129]
41 | < 0.01 | Cc1cnc(N2CC3(CCOCC3)C2)c(C(=O)Nc2ccc(C(=O)N3CCc4cc(C(=O)NC5CCOCC5)sc4-c4ccc(F)cc43)cc2)c1 [Example 130]
42 | < 0.01 | Cc1cnc(N2CC3(CCOCC3)C2)c(C(=O)Nc2ccc(C(=O)N3CCc4cc(C(=O)Nc5c(Cl)cncc5Cl)sc4-c4ccc(F)cc43)cc2)c1 [Example 131]
43 | < 0.01 | Cc1cnc(N2CC3(CCOCC3)C2)c(C(=O)Nc2ccc(C(=O)N3CCc4cc(C(=O)Nc5nc(C)co5)sc4-c4ccc(F)cc43)cc2)c1 [Example 135]
44 | 0.01 to 0.05 | Cc1cc(C(=O)Nc2ccc(C(=O)N3CCc4cc(C(=O)Nc5c(F)cc(F)cc5Cl)sc4-c4ccc(F)cc43)cc2)c(N2CC3(CCOCC3)C2)nn1 [Example 136]
45 | < 0.01 | O=C(Nc1ncccc1C(F)(F)F)c1cc2c(s1)-c1ccc(F)cc1N(C(=O)c1ccc(NC(=O)c3cc4c(nc3N3CC5(CCOCC5)C3)CCC4)cc1)CC2 [Example 139]
